According to patent US8124610B2, “Sodium channel inhibitors” (Icagen Inc., priority 2007, dated 2012):
Where two headings read alike, the source gives them in different places.

Key:
hSCN3A = molecular target: T1, hSCN3A (Homo sapiens, UniProt Q9NY46); assay: Whole-cell patch-clamp electrophysiology (conventional or PatchXpress), HEK cells expressing hSCN3A, estimated IC-50; assay type: cell-based; conditions: read-out: SCN3A EIC-50
T1 construct: expressed in transfected cells
In short: (§1)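 Stably transfected HEK cells recorded by whole-cell voltage clamp (manual or PatchXpress) at 22–24 °C in pH 7.4 HEPES-buffered extracellular solution. Cells held at the empirically determined inactivation V1/2 after an 8 s prepulse, then stepped to 0 mV for 20 ms; % inhibition from current amplitude before vs after compound.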

hSCN9A = molecular target: T2, hSCN9A (Homo sapiens, UniProt Q15858); assay: Whole-cell patch-clamp electrophysiology (conventional or PatchXpress), HEK cells expressing hSCN9A, estimated IC-50; assay type: cell-based; conditions: read-out: SCN9A EIC-50
T2 construct: expressed in transfected cells
In short: as §1

[1] = estimated IC-50, HEK cells expressing hSCN3A, class symbols or bounds
[2] = estimated IC-50, HEK cells expressing hSCN9A, class symbols or bounds
[3] = commercial compounds (second Table VI), estimated IC-50 from single point electrophysiology
[4] = Table V, estimated IC-50 from single point electrophysiology, cells clamped at V1/2

T2 sequence (Q15858 whole entry): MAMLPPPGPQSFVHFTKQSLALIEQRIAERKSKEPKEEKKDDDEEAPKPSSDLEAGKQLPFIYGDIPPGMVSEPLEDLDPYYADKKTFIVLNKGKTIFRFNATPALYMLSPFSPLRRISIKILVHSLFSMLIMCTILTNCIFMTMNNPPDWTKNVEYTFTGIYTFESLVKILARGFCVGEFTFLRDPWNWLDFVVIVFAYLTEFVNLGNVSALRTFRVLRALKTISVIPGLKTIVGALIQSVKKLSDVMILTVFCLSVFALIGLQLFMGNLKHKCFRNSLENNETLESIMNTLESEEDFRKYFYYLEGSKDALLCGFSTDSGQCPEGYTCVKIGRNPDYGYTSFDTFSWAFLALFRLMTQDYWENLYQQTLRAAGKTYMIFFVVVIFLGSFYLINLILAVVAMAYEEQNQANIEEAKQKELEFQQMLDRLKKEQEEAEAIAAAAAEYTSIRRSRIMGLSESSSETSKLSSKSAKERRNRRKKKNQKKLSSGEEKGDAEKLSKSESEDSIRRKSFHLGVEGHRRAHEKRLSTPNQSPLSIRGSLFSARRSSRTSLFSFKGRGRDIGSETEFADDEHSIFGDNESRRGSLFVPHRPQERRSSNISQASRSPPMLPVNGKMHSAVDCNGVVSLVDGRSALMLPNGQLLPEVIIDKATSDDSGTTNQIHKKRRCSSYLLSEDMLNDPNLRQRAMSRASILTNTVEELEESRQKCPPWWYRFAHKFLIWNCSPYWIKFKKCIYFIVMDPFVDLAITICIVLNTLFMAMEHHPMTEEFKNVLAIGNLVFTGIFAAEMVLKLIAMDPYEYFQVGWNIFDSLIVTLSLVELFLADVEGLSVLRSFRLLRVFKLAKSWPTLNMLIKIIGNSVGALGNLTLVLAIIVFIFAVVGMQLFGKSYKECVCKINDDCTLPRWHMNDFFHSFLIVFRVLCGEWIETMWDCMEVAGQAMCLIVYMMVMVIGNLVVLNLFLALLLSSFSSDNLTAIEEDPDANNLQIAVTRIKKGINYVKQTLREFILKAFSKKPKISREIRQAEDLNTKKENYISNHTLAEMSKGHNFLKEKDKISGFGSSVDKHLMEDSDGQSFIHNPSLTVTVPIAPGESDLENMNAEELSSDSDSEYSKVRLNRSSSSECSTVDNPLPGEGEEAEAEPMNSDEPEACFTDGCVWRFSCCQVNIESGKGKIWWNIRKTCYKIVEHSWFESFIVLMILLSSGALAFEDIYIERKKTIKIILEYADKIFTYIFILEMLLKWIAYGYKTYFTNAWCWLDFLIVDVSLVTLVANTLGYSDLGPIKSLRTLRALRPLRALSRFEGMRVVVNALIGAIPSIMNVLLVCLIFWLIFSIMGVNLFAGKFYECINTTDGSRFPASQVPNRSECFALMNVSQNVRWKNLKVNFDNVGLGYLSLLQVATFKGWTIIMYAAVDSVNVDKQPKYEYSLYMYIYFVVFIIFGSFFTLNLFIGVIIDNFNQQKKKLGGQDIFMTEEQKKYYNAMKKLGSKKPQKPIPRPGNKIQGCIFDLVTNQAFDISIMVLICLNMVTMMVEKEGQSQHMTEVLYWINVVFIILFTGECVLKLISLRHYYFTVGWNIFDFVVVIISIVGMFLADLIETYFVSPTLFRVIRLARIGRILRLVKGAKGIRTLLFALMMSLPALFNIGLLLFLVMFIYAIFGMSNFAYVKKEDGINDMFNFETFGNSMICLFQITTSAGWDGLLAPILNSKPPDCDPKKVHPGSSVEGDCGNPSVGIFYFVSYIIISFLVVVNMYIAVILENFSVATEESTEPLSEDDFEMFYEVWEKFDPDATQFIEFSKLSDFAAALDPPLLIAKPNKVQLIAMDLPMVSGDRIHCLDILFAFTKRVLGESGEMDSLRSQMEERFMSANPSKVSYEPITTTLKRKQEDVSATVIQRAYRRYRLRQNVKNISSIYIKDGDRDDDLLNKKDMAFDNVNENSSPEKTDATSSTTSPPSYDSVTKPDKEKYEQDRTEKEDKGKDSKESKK
T1 sequence (Q9NY46 whole entry): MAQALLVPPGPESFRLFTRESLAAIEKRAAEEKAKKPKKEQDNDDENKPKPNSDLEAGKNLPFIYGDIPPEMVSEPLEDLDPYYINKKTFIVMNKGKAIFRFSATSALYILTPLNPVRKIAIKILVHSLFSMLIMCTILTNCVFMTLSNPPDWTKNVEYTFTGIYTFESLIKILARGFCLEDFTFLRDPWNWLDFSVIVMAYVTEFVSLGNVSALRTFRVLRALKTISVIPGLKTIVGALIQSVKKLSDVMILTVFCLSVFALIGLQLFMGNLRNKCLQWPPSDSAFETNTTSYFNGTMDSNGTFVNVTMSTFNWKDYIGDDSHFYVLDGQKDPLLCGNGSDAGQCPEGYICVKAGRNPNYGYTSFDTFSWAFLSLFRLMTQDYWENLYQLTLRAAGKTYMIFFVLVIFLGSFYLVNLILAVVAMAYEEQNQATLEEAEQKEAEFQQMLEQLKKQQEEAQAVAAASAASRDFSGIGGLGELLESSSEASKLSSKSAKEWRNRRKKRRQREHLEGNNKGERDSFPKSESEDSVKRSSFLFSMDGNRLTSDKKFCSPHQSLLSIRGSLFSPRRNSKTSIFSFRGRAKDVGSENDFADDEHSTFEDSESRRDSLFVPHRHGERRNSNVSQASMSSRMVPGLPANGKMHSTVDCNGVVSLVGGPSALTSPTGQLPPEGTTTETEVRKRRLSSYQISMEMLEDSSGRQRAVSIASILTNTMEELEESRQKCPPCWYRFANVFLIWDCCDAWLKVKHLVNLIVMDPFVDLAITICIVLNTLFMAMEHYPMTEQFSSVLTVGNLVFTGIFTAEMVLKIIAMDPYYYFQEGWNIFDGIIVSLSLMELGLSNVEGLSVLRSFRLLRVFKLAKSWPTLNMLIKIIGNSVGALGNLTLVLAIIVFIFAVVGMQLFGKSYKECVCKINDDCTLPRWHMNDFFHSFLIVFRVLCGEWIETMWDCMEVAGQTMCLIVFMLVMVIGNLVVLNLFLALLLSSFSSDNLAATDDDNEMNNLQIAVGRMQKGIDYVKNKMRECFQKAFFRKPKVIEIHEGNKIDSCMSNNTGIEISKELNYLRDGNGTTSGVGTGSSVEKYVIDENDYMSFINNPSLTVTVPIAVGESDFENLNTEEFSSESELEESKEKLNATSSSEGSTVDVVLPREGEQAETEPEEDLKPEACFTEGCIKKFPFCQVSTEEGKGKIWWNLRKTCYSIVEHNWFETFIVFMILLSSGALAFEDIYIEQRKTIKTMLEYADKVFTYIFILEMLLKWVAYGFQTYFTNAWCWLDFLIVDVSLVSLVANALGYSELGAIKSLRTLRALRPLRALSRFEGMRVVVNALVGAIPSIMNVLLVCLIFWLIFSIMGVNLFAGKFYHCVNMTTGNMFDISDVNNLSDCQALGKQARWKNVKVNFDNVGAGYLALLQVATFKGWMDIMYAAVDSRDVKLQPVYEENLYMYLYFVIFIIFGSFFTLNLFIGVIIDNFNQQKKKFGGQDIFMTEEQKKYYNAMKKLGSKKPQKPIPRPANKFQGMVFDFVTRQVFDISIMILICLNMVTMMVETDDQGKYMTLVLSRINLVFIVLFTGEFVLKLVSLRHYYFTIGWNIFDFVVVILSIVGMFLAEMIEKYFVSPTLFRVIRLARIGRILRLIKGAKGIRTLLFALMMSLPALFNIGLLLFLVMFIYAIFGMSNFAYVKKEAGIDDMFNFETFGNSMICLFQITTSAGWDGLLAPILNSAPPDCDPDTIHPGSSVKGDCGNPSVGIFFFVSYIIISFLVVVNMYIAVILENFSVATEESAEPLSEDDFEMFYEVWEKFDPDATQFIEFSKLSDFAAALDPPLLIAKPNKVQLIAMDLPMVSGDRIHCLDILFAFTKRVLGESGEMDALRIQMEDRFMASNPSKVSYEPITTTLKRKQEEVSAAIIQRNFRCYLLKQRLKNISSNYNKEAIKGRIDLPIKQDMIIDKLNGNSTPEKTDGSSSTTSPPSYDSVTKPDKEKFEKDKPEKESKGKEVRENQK

IC50 (hSCN3A; [1])	IC50 (hSCN9A; [2])	SMILES	also measured
< 2000 nM	< 2000 nM	O=S(=O)(Nc1nccs1)c1ccc(Nc2nc(COc3ccc(Cl)cc3)cs2)cc1 [Compound 52, 4-(4-((4-chlorophenoxy)methyl)thiazol-2-ylamino)-N-(thiazol-2-yl)benzenesulfonamide]	
2000 to 10000 nM	< 2000 nM	O=S(=O)(Nc1nccs1)c1ccc(Nc2ncn(Cc3cccc(Cl)c3)n2)c(F)c1 [Compound 201, 4-(1-(3-chlorobenzyl)-1H-1,2,4-triazol-3-ylamino)-3-fluoro-N-(thiazol-2-yl)benzenesulfonamide]	
< 2000 nM	< 2000 nM	O=S(=O)(Nc1nccs1)c1ccc(Nc2nc(CCCOc3ccc(Cl)cc3)cs2)cc1 [Compound 94, 4-(4-(3-(4-chlorophenoxy)propyl)thiazol-2-ylamino)-N-(thiazol-2-yl)benzenesulfonamide]	
< 2000 nM	> 1000 nM	COc1ccc(C(=O)Cn2ncc3cc(S(=O)(=O)Nc4nccs4)ccc32)c(OC)c1 [Compound 276, 1-(2-(2,4-dimethoxyphenyl)-2-oxoethyl)-N-(thiazol-2-yl)-1H-indazole-5-sulfonamide]	
		O=S(=O)(Nc1nccs1)c1ccc(Nc2nnc(-c3ccc(Cl)cc3)c3ccccc23)cc1 [Compound 40, 4-(4-(4-chlorophenyl)phthalazin-1-ylamino)-N-(thiazol-2-yl)benzenesulfonamide, reference compound]	IC50 (hSCN3A; [3]): 1320 nM; IC50 (hSCN9A; [3]): 3490 nM
2000 to 10000 nM	2000 to 10000 nM	O=S(=O)(Nc1nccs1)c1ccc(Nc2nc(CNC3CCCCCC3)cs2)cc1 [Compound 74, 4-(4-((cycloheptylamino)methyl)thiazol-2-ylamino)-N-(thiazol-2-yl)benzenesulfonamide]	
< 2000 nM	< 2000 nM	Cc1cc(Nc2ccc(S(=O)(=O)Nc3nccs3)c(Cl)c2)n(-c2ccccc2)n1 [Compound 161, 2-chloro-4-(3-methyl-1-phenyl-1H-pyrazol-5-ylamino)-N-(thiazol-2-yl)benzenesulfonamide]	
< 2000 nM	< 2000 nM	O=S(=O)(Nc1nccs1)c1ccc(Nc2nc(CSc3ccc(F)cc3)cs2)cc1 [Compound 82, 4-(4-((4-fluorophenylthio)methyl)thiazol-2-ylamino)-N-(thiazol-2-yl)benzenesulfonamide]	
		CC(C)(C)c1csc(Nc2ccc(S(=O)(=O)Nc3nccs3)c3ccccc23)n1 [Compound 12, 4-(4-tert-Butyl-thiazol-2-ylamino)-naphthalene-1-sulfonic acid thiazol-2-ylamide]	IC50 (hSCN3A; [4]): < 2000 nM; IC50 (hSCN9A; [4]): 2000 to 10000 nM
< 2000 nM	> 10000 nM	O=S(=O)(Nc1nccs1)c1ccc(Nc2nccc(OCC3CCCCC3)n2)cc1 [Compound 81, 4-(4-(cyclohexylmethoxy)pyrimidin-2-ylamino)-N-(thiazol-2-yl)benzenesulfonamide]	
< 2000 nM	< 2000 nM	Cc1cc(Nc2ccc(S(=O)(=O)Nc3nccs3)c(F)c2)n(-c2c(C)cccc2C)n1 [Compound 191, 4-(1-(2,6-dimethylphenyl)-3-methyl-1H-pyrazol-5-ylamino)-2-fluoro-N-(thiazol-2-yl)benzenesulfonamide]	
2000 to 10000 nM	> 1000 nM	Cc1cc(Nc2ccc(S(=O)(=O)Nc3ncc(C#N)s3)c(F)c2)n(-c2ccccc2)n1 [Compound 245, N-(5-cyanothiazol-2-yl)-2-fluoro-4-(3-methyl-1-phenyl-1H-pyrazol-5-ylamino)benzenesulfonamide]	
< 2000 nM	> 1000 nM	CC(C)(Oc1ccc(Cl)cc1)c1csc(Nc2ccc(S(=O)(=O)Nc3nccs3)cc2)n1 [Compound 97, 4-(4-(2-(4-chlorophenoxy)propan-2-yl)thiazol-2-ylamino)-N-(thiazol-2-yl)benzenesulfonamide]	
> 1000 nM	2000 to 10000 nM	O=S(=O)(Nc1nccs1)c1ccc(Nc2nc(-c3ccccc3)cs2)cc1 [Compound 43, 4-(4-phenylthiazol-2-ylamino)-N-(thiazol-2-yl)benzenesulfonamide]	
